# From patent US12383511B2, “Osteogenic agents and uses thereof” (GoldPorp Pharma Limited, priority 2022, dated 2025)
# Experiments:
# MC3T3-E1 osteoblast = assay: mRNA expression of osteogenesis-related molecules by real-time PCR; type: cell-based; conditions: for AFT6 mRNA expression / ALP mRNA expression / ATF3 mRNA expression / Axin2 mRNA expression / BMP2 mRNA expression / BMP7 mRNA expression / BSP mRNA expression / COL1A1 mRNA expression / Fzd1 mRNA expression / Fzd2 mRNA expression / Fzd5 mRNA expression / LRP5 mRNA expression / OCN mRNA expression / OPN mRNA expression / OSN mRNA expression / OSX mRNA expression / Runx2 mRNA expression / VDR mRNA expression / Wnt3A mRNA expression / Wnt5A mRNA expression / Wnt7B mRNA expression / Wnt11 mRNA expression: BMP2 30 ng/ml, ASC 400 μM + β-GP 5 mM, F1 5 μM, F4 5 μM, relative to DMSO control, normalized to GAPDH; for levels of osteocalcin (OCN) and osteoportin (OPN) mRNA: treatment of cells with F1 or F4
# Method: MC3T3-E1 cells were seeded in 6-well plates at 1×10^5 cells per well for 2 days. […] Total RNA was isolated at Day 2 and Day 4 with Trizol® reagent, 1 ug of total RNA was subjected to reverse transcription/cDNA synthesis using Superscript III first-strand synthesis system (Life Technologies).
# Equal amount of cDNA generated from reverse transcription reactions were subjected to real-time PCR with SYBR® Green PCR Master Mix and primers for osteoblast differentiation markers. Primers used included: […]
# Osteoblast differentiation markers genes expression were analyzed by ABI prism 7900HT Sequence Detection System and the relative level of transcript expression was quantified by ΔΔCt method.
# MC3T3-E1 osteoblasts [1] = assay: Cell viability / cell number NBB assay; type: cell-based; conditions: for cell number (NBB assay): 0.625 to 10 μM; for cell viability (NBB assay): higher concentrations (25-100 μM)
# Method: MC3T3-E1 cells were seeded at 7×10^3 cells/well in 96-well plates for 2 days. […] After treatment, cells were fixed with 3% formalin and stained with NBB solution (0.05% NBB with 0.1 M sodium acetate and 9% acetic acid) at room temperature. Twenty four hours later, staining solution was removed and distilled water was added to remove free dye. Then, 100 ul of 50 mM […] was added to dissolve bound dye and recorded absorbance at 590 nm.
# MC3T3-E1 osteoblasts [2] = assay: Alkaline phosphatase (ALP) activity assay in MC3T3-E1 osteoblasts; type: cell-based; conditions: for cellular alkaline phosphatase (ALP) enzyme activities: 0.5, […], 5 μM; for concentration at which increases in ALP activities were already evident / concentration of maximum increase in ALP activities: at 24 and 48 h after treatment
# Method: MC3T3-E1 (passage 4-10) was maintained in Minimal Essential Media (MEM) supplemented with 10% FBS, 1 mM Sodium Pyruvate and 1% 100 ug/ml penicillin-streptomycin (100 U/ml). All reagents are from GIBCO Life Technologies.
# MC3T3-E1 cells were seeded at 1×10^5 cells per well in 24-well plate. […] After treatment, cells were washed twice with PBS and lysed with buffer contains 50 mM Tris pH7.4 and 0.1% Triton X-100. After 3 freeze-thaw cycles, 40 ul of cell lysate was mixed with 50 ul of 2× Assay buffer (2-Amino-2methyl-1-propanol, pH 10.4 with 4 mM MgCl2) and 10 ul of 0.1M 4-Nitrophenyl phosphate. Incubated in 37° C. and recorded at OD410.
# [3] = system: MC3T3-E1 osteoblast cells; assay: Osteoblast mineralization assay (Alizarin Red staining); type: cell-based; conditions: for Alizarin Red staining (calcium deposition) in cell layers: […] or 5 μM in osteoblast mineralization medium, day 14, compared with control
# Method: MC3T3-E1 cells were seeded at 1×10^5 cells per well in 24-well plates. […] […] Cells were washed twice with PBS and fixed with 10% formalin for 1 hour. Fixed cell was washed twice with distilled water and stained with 2% Alizarin Red S solution (pH 4.1) in the dark for 1 hour. Stain solution was removed and washed 4 times with distilled water.
# Estrogen receptor beta = Estrogen receptor beta (Homo sapiens, UniProt Q92731); assay: biochemical
# Sequence of Estrogen receptor beta (Q92731 whole entry, species assumed): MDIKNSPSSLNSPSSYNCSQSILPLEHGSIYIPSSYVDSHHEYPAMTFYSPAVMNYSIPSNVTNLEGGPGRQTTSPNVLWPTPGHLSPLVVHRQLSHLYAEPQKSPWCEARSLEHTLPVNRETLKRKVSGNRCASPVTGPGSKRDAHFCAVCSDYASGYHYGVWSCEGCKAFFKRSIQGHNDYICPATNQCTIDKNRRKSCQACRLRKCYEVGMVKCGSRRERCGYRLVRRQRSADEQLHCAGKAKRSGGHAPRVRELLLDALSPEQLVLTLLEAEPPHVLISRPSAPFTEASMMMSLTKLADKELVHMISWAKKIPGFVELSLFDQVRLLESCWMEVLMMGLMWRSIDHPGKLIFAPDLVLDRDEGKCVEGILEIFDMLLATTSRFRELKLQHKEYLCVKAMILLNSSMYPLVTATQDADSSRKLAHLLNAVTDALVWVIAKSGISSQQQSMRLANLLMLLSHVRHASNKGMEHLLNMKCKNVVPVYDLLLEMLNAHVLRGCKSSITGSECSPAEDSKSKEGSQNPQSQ
# p38 = assay: Western blot of phosphorylated p38 and total p38; type: cell-based; conditions: 5 μM, 15 min and 30 min, MC3T3-E1 osteoblasts
# Method: MC3T3-E1 were lysed with 20 mM Tris pH8.0, 137 mM NaCl, 2 mM EDTA, 1% Triton X-100 and 10% Glycerol with protease inhibitor cocktail (Roche, complete). Protein concentration was determined by Bradford Protein Assay (Bio-Rad) and equal amount of proteins (30 μg) was resolved by SDS-PAGE and transferred onto PVDF membrane. The membrane was blocked with 3% BSA in Tris-buffered saline containing 0.1% Tween 20 and incubated with primary antibody (1:1000) overnight at 4° C. then incubated with HRP-linked secondary antibody for 1 h. Chemiluminescence signals were detected using enhanced chemiluminescence reagents (GE Healthcare) on X-Ray films (Fujifilm).
# The levels of phosphorylated p38 and total p38 were determined by immunoblotting experiments.
# MDA-MB-231 cells = assay: BrdU incorporation proliferation assay; type: cell-based; conditions: 5 μM
# [4] = system: estrogen responsive gene elements (ERE); assay: pERE-Luc reporter gene assay in MC3T3-E1; type: cell-based; conditions: 0.5-10 μM, MC3T3-E1
# Method: MC3T3-E1 were seeded at 9.0×10^4 per well in 24-well plates. Twenty-four hours after cell seeding, cells were transiently transfected with 500 ng pERE-Luc (contains three repeats of estrogen-response element) by lipofectamine 2000 (Life Technologies) according to manufacturers' instruction (lipofectamine:DNA=3:1).
# MCF7 cells = assay: BrdU incorporation proliferation assay; type: cell-based
# Source text: The effect of F compounds on estrogen dependent cancer cells was investigated (FIG. 8). […] The fold increase of MCF7 proliferation was similar to that induced by estradiol treatment.
smiles,measurement,setting,value
C=Cc1cc(O)c(C)c2c1-c1ccc(O)c(C)c1CC2 [F1],AFT6 mRNA expression,MC3T3-E1 osteoblast; D 2,1.5 fold
same,ALP mRNA expression,MC3T3-E1 osteoblast; D 2,1.8 fold
same,ATF3 mRNA expression,MC3T3-E1 osteoblast; D 2,0.8 fold
same,Axin2 mRNA expression,MC3T3-E1 osteoblast; D 2,0.9 fold
same,BMP2 mRNA expression,MC3T3-E1 osteoblast; D 2,1.2 fold
same,BMP7 mRNA expression,MC3T3-E1 osteoblast; D 2,1.6 fold
same,BSP mRNA expression,MC3T3-E1 osteoblast; D 2,2.1 fold
same,COL1A1 mRNA expression,MC3T3-E1 osteoblast; D 2,0.7 fold
same,Fzd1 mRNA expression,MC3T3-E1 osteoblast; D 2,3.0 fold
same,Fzd2 mRNA expression,MC3T3-E1 osteoblast; D 2,1.0 fold
same,Fzd5 mRNA expression,MC3T3-E1 osteoblast; D 2,0.8 fold
same,LRP5 mRNA expression,MC3T3-E1 osteoblast; D 2,0.8 fold
same,OCN mRNA expression,MC3T3-E1 osteoblast; D 2,29 fold
same,OPN mRNA expression,MC3T3-E1 osteoblast; D 2,1.4 fold
same,OSN mRNA expression,MC3T3-E1 osteoblast; D 2,0.7 fold
same,OSX mRNA expression,MC3T3-E1 osteoblast; D 2,0.6 fold
same,Runx2 mRNA expression,MC3T3-E1 osteoblast; D 2,1.1 fold
same,VDR mRNA expression,MC3T3-E1 osteoblast; D 2,0.9 fold
same,Wnt3A mRNA expression,MC3T3-E1 osteoblast; D 2,0.9 fold
same,Wnt5A mRNA expression,MC3T3-E1 osteoblast; D 2,0.8 fold
same,Wnt7B mRNA expression,MC3T3-E1 osteoblast; D 2,0.8 fold
same,Wnt11 mRNA expression,MC3T3-E1 osteoblast; D 2,1.1 fold
same,AFT6 mRNA expression,MC3T3-E1 osteoblast; D 4,1.0 fold
same,ALP mRNA expression,MC3T3-E1 osteoblast; D 4,2.9 fold
same,ATF3 mRNA expression,MC3T3-E1 osteoblast; D 4,1.0 fold
same,Axin2 mRNA expression,MC3T3-E1 osteoblast; D 4,1.0 fold
same,BMP2 mRNA expression,MC3T3-E1 osteoblast; D 4,0.7 fold
same,BMP7 mRNA expression,MC3T3-E1 osteoblast; D 4,1.1 fold
same,BSP mRNA expression,MC3T3-E1 osteoblast; D 4,1.3 fold
same,COL1A1 mRNA expression,MC3T3-E1 osteoblast; D 4,0.9 fold
same,Fzd1 mRNA expression,MC3T3-E1 osteoblast; D 4,2.6 fold
same,Fzd2 mRNA expression,MC3T3-E1 osteoblast; D 4,0.7 fold
same,Fzd5 mRNA expression,MC3T3-E1 osteoblast; D 4,0.6 fold
same,LRP5 mRNA expression,MC3T3-E1 osteoblast; D 4,0.6 fold
same,OCN mRNA expression,MC3T3-E1 osteoblast; D 4,11 fold
same,OPN mRNA expression,MC3T3-E1 osteoblast; D 4,1.8 fold
same,OSN mRNA expression,MC3T3-E1 osteoblast; D 4,1.6 fold
same,OSX mRNA expression,MC3T3-E1 osteoblast; D 4,0.5 fold
same,Runx2 mRNA expression,MC3T3-E1 osteoblast; D 4,1.2 fold
same,VDR mRNA expression,MC3T3-E1 osteoblast; D 4,0.5 fold
same,Wnt3A mRNA expression,MC3T3-E1 osteoblast; D 4,2.8 fold
same,Wnt5A mRNA expression,MC3T3-E1 osteoblast; D 4,0.6 fold
same,Wnt7B mRNA expression,MC3T3-E1 osteoblast; D 4,1.1 fold
same,Wnt11 mRNA expression,MC3T3-E1 osteoblast; D 4,0.6 fold
same,levels of osteocalcin (OCN) and osteoportin (OPN) mRNA,MC3T3-E1 osteoblast,markedly increased
same,cell number (NBB assay),MC3T3-E1 osteoblasts [1],slightly increased the cell number
same,cell viability (NBB assay),MC3T3-E1 osteoblasts [1],significant loss of cell viability
same,cellular alkaline phosphatase (ALP) enzyme activities,MC3T3-E1 osteoblasts [2],increased the cellular alkaline phosphatase (ALP) enzyme activities in a concentration-dependent manner
same,concentration at which increases in ALP activities were already evident,MC3T3-E1 osteoblasts [2],0.5 µM
same,concentration of maximum increase in ALP activities,MC3T3-E1 osteoblasts [2],5 µM
same,calcium deposition at higher vs lower concentration,[3]; 5 μM compared with […],More calcium deposition
same,Alizarin Red staining (calcium deposition) in cell layers,[3],significantly enhanced
"C=Cc1cc(O)cc2c1-c1ccc(O)c(C)c1CC2 [F4, effusol]",IC50,Estrogen receptor beta,5.6 nM
same,levels of phosphorylated p38,p38,increased levels of phosphorylated p38
same,cell proliferation induced by 17beta-estradiol in MDA-MB-231 cells (ER negative),MDA-MB-231 cells,had no effect
same,mRNA of Wnt pathway members Wnt3A and frizzled 1,MC3T3-E1 osteoblast,increases
same,AFT6 mRNA expression,MC3T3-E1 osteoblast; D 2,1.5 fold
same,ALP mRNA expression,MC3T3-E1 osteoblast; D 2,2.1 fold
same,ATF3 mRNA expression,MC3T3-E1 osteoblast; D 2,0.7 fold
same,Axin2 mRNA expression,MC3T3-E1 osteoblast; D 2,1.1 fold
same,BMP2 mRNA expression,MC3T3-E1 osteoblast; D 2,1.0 fold
same,BMP7 mRNA expression,MC3T3-E1 osteoblast; D 2,1.0 fold
same,BSP mRNA expression,MC3T3-E1 osteoblast; D 2,1.6 fold
same,COL1A1 mRNA expression,MC3T3-E1 osteoblast; D 2,1.0 fold
same,Fzd1 mRNA expression,MC3T3-E1 osteoblast; D 2,3.3 fold
same,Fzd2 mRNA expression,MC3T3-E1 osteoblast; D 2,0.8 fold
same,Fzd5 mRNA expression,MC3T3-E1 osteoblast; D 2,0.7 fold
same,LRP5 mRNA expression,MC3T3-E1 osteoblast; D 2,0.9 fold
same,OCN mRNA expression,MC3T3-E1 osteoblast; D 2,17 fold
same,OPN mRNA expression,MC3T3-E1 osteoblast; D 2,1.5 fold
same,OSN mRNA expression,MC3T3-E1 osteoblast; D 2,0.9 fold
same,OSX mRNA expression,MC3T3-E1 osteoblast; D 2,0.6 fold
same,Runx2 mRNA expression,MC3T3-E1 osteoblast; D 2,1.3 fold
same,VDR mRNA expression,MC3T3-E1 osteoblast; D 2,2.1 fold
same,Wnt3A mRNA expression,MC3T3-E1 osteoblast; D 2,0.9 fold
same,Wnt5A mRNA expression,MC3T3-E1 osteoblast; D 2,1.0 fold
same,Wnt7B mRNA expression,MC3T3-E1 osteoblast; D 2,0.6 fold
same,Wnt11 mRNA expression,MC3T3-E1 osteoblast; D 2,0.8 fold
same,AFT6 mRNA expression,MC3T3-E1 osteoblast; D 4,2.1 fold
same,ALP mRNA expression,MC3T3-E1 osteoblast; D 4,4.6 fold
same,ATF3 mRNA expression,MC3T3-E1 osteoblast; D 4,0.9 fold
same,Axin2 mRNA expression,MC3T3-E1 osteoblast; D 4,1.1 fold
same,BMP2 mRNA expression,MC3T3-E1 osteoblast; D 4,0.9 fold
same,BMP7 mRNA expression,MC3T3-E1 osteoblast; D 4,1.3 fold
same,BSP mRNA expression,MC3T3-E1 osteoblast; D 4,1.2 fold
same,COL1A1 mRNA expression,MC3T3-E1 osteoblast; D 4,1.2 fold
same,Fzd1 mRNA expression,MC3T3-E1 osteoblast; D 4,5.8 fold
same,Fzd2 mRNA expression,MC3T3-E1 osteoblast; D 4,0.8 fold
same,Fzd5 mRNA expression,MC3T3-E1 osteoblast; D 4,0.8 fold
same,LRP5 mRNA expression,MC3T3-E1 osteoblast; D 4,1.0 fold
same,OCN mRNA expression,MC3T3-E1 osteoblast; D 4,9 fold
same,OPN mRNA expression,MC3T3-E1 osteoblast; D 4,2.7 fold
same,OSN mRNA expression,MC3T3-E1 osteoblast; D 4,2 fold
same,OSX mRNA expression,MC3T3-E1 osteoblast; D 4,0.6 fold
same,Runx2 mRNA expression,MC3T3-E1 osteoblast; D 4,1.7 fold
same,VDR mRNA expression,MC3T3-E1 osteoblast; D 4,1.6 fold
same,Wnt3A mRNA expression,MC3T3-E1 osteoblast; D 4,1.9 fold
same,Wnt5A mRNA expression,MC3T3-E1 osteoblast; D 4,0.8 fold
same,Wnt7B mRNA expression,MC3T3-E1 osteoblast; D 4,0.1 fold
same,Wnt11 mRNA expression,MC3T3-E1 osteoblast; D 4,0.4 fold
same,levels of osteocalcin (OCN) and osteoportin (OPN) mRNA,MC3T3-E1 osteoblast,markedly increased
same,transcriptional activity driven by estrogen responsive gene elements (ERE),[4],stimulated the transcriptional activity driven by estrogen responsive gene elements (ERE) in a dose-dependent manner
same,cell number (NBB assay),MC3T3-E1 osteoblasts [1],slightly increased the cell number
same,cell viability (NBB assay),MC3T3-E1 osteoblasts [1],significant loss of cell viability
same,MCF7 cell proliferation induced by estradiol,MCF7 cells; 5 μM,significantly suppress
same,MCF7 cell proliferation,MCF7 cells; dose of 5 μM or higher,inhibited the proliferation
same,MCF7 cell proliferation,MCF7 cells; low dose of 0.3 μM,induced MCF7 cell proliferation
same,cellular alkaline phosphatase (ALP) enzyme activities,MC3T3-E1 osteoblasts [2],increased the cellular alkaline phosphatase (ALP) enzyme activities in a concentration-dependent manner
same,concentration at which increases in ALP activities were already evident,MC3T3-E1 osteoblasts [2],0.5 µM
same,concentration of maximum increase in ALP activities,MC3T3-E1 osteoblasts [2],5 µM
same,Alizarin Red staining (calcium deposition) in cell layers,[3],significantly enhanced
